14 compounds from BindingDB's records for doi:10.1016/j.bioorg.2016.07.002 (Universiti Teknologi Mara, 2016) can be followed below.

The IC50 is the concentration at which inhibition is half-maximal. Read a low IC50 as greater potency.

In this assay the target is T1, Beta-glucuronidase (Bos taurus, UniProt A3KMY8).
T1 sequence (A3KMY8 whole entry): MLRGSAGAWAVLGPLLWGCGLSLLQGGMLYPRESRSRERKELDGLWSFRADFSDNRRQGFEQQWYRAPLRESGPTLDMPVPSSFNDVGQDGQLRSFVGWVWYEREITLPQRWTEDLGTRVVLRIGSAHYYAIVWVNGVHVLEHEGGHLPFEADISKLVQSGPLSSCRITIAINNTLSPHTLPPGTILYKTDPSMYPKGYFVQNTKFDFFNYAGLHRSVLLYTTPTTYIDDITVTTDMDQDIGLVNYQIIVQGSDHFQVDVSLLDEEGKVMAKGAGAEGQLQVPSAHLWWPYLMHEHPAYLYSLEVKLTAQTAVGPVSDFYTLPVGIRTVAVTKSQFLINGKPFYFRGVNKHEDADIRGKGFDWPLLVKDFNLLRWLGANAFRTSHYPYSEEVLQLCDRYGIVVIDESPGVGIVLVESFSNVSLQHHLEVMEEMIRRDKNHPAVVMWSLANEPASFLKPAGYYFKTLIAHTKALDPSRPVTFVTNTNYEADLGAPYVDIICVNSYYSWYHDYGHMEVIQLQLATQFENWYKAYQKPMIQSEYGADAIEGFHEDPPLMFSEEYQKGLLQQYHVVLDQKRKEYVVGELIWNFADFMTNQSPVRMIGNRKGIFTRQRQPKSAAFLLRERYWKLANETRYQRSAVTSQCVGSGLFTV
Description: β-Glucuronidase assay. Here is the method:
[…] was the volume of total reaction. Reaction mixture containing 5 µL of test compound solution, 185 µL of 0.1 M acetate buffer and 10 µL of enzyme solution wereincubated for 30 min at 37 °C. […] Experiments were performed for triplicate. To avoid precipitation compound concentration were decreased and the volume of reactionwas high (200 µL).
In turn, `O=S(=O)(Nc1ccccc1SSc1ccccc1NS(=O)(=O)c1ccc(Cl)cc1Cl)c1ccc(Cl)cc1Cl` [N,N'-(disulfanediylbis(2,1-phenylene))bis(2,4-dichlorobenzenesulfonamide) (17)] gave an IC50 of 11.3 µM.

`O=S(=O)(Nc1ccccc1SSc1ccccc1NS(=O)(=O)c1cc(Cl)ccc1Cl)c1cc(Cl)ccc1Cl` [N,N'-(disulfanediylbis(2,1-phenylene))bis(2,5-dichlorobenzenesulfonamide) (18)] showed an IC50 of 16.2 µM. The IC50 values of the last two compounds are within 1.5-fold of each other.

The compound `O=S(=O)(Nc1ccccc1SSc1ccccc1NS(=O)(=O)c1ccccc1Br)c1ccccc1Br` [N,N'-(disulfanediylbis(2,1-phenylene))bis(2-bromobenzenesulfonamide) (7)] gave an IC50 of 58.5 µM. Compared with the last compound, the IC50 is about 3.6-fold higher.

In turn, `O=S(=O)(Nc1ccccc1SSc1ccccc1NS(=O)(=O)c1ccccc1Cl)c1ccccc1Cl` [N,N'-(disulfanediylbis(2,1-phenylene))bis(2-chlorobenzenesulfonamide) (1)] yielded an IC50 of 8.18 µM.

Compound `O=S(=O)(Nc1ccccc1SSc1ccccc1NS(=O)(=O)c1ccccc1F)c1ccccc1F` [N,N'-(disulfanediylbis(2,1-phenylene))bis(2-fluorobenzenesulfonamide) (4)] returned an IC50 of 6.23 µM. This IC50 and that of the compound before are within 1.5-fold of each other.

On to `Cc1ccccc1S(=O)(=O)Nc1ccccc1SSc1ccccc1NS(=O)(=O)c1ccccc1C` [N,N'-(disulfanediylbis(2,1-phenylene))bis(2-methylbenzenesulfonamide) (14)], for which it took 34.3 µM to reach half-maximal inhibition (IC50). This IC50 lies about 5.5-fold higher than the previous one.

`O=[N+]([O-])c1ccccc1S(=O)(=O)Nc1ccccc1SSc1ccccc1NS(=O)(=O)c1ccccc1[N+](=O)[O-]` [N,N'-(disulfanediylbis(2,1-phenylene))bis(2-nitrobenzenesulfonamide) (10)]: the IC50 is 14.2 µM.

Compound `O=S(=O)(Nc1ccccc1SSc1ccccc1NS(=O)(=O)c1cccc(Br)c1)c1cccc(Br)c1` [N,N'-(disulfanediylbis(2,1-phenylene))bis(3-bromobenzenesulfonamide) (9)] had an IC50 of 88.2 µM.

Compound `O=S(=O)(Nc1ccccc1SSc1ccccc1NS(=O)(=O)c1cccc(Cl)c1)c1cccc(Cl)c1` [N,N'-(disulfanediylbis(2,1-phenylene))bis(3-chlorobenzenesulfonamide) (2)] came in with an IC50 of 25 µM.

In turn, `O=S(=O)(Nc1ccccc1SSc1ccccc1NS(=O)(=O)c1cccc(F)c1)c1cccc(F)c1` [N,N'-(disulfanediylbis(2,1-phenylene))bis(3-fluorobenzenesulfonamide) (5)] registered an IC50 of 34.5 µM.

The compound `O=[N+]([O-])c1cccc(S(=O)(=O)Nc2ccccc2SSc2ccccc2NS(=O)(=O)c2cccc([N+](=O)[O-])c2)c1` [N,N'-(disulfanediylbis(2,1-phenylene))bis(3-nitrobenzenesulfonamide) (12)] came in with an IC50 of 59.3 µM.

`O=S(=O)(Nc1ccccc1SSc1ccccc1NS(=O)(=O)c1ccc(F)cc1)c1ccc(F)cc1` [N,N'-(disulfanediylbis(2,1-phenylene))bis(4-fluorobenzenesulfonamide) (6)] showed a 50% inhibitory concentration (IC50) of 13.2 µM.

The compound `COc1ccc(S(=O)(=O)Nc2ccccc2SSc2ccccc2NS(=O)(=O)c2ccc(OC)cc2)cc1` [N,N'-(disulfanediylbis(2,1-phenylene))bis(4-methoxybenzenesulfonamide) (20)] gave an IC50 of 56.3 µM.

For the compound `O=[N+]([O-])c1ccc(S(=O)(=O)Nc2ccccc2SSc2ccccc2NS(=O)(=O)c2ccc([N+](=O)[O-])cc2)cc1` [N,N'-(disulfanediylbis(2,1-phenylene))bis(4-nitrobenzenesulfonamide) (11)], half-maximal inhibition (IC50) was put at 28.4 µM.
